Data reported in ChEMBL document CHEMBL3351632, “Design and synthesis of 4-heteroaryl 1,2,3,4-tetrahydroisoquinolines as triple reuptake inhibitors” (ACS Med Chem Lett, 2014).

Legend:
Rattus norvegicus = organism: Rattus norvegicus; assay: Drug metabolism in rat assessed as formation of (+)-2-(4-(benzo[b]thiophen-5-yl)-2-methyl-1,2,3,4-tetrahydroisoquinolin-7-ylamino)ethanol; format: ADME, organism-based; settings: in vivo
[1] = Clearance in Sprague-Dawley rat at 10 mg/kg, po and 1 mg/kg, iv; format: ADME, organism-based; settings: in vivo
[2] = Volume of distribution at steady state in Sprague-Dawley rat at 10 mg/kg, po and 1 mg/kg, iv; format: ADME, organism-based; settings: in vivo, read-out: Vdss
[3] = Oral bioavailability in Sprague-Dawley rat at 10 mg/kg; format: ADME, organism-based; settings: in vivo
[4] = Clearance in cynomolgus monkey at 2 mg/kg, po and 0.5 mg/kg, iv; format: ADME, organism-based, Macaca fascicularis; settings: in vivo
[5] = Volume of distribution at steady state in cynomolgus monkey at 2 mg/kg, po and 0.5 mg/kg, iv; format: ADME, organism-based, Macaca fascicularis; settings: in vivo, read-out: Vdss
[6] = Oral bioavailability at steady state in cynomolgus monkey at 2 mg/kg; format: ADME, organism-based, Macaca fascicularis; settings: in vivo
[7] = Ratio of drug uptake in brain to plasma of Sprague-Dawley rat at 10 mg/kg, po measured after 1 hr; format: ADME, organism-based; parameters: dose 10 mg/kg, route oral; settings: read-out: BPR
Liver microsome [8] = assay: Drug metabolism in human liver microsomes assessed as formation of (+)-2-(4-(benzo[b]thiophen-5-yl)-2-methyl-1,2,3,4-tetrahydroisoquinolin-7-ylamino)ethanol; format: ADME
Liver microsome [9] = assay: Drug metabolism in rat liver microsomes assessed as formation of (+)-2-(4-(benzo[b]thiophen-5-yl)-2-methyl-1,2,3,4-tetrahydroisoquinolin-7-ylamino)ethanol; format: ADME

Drug metabolism (Rattus norvegicus): metabolite_notdetected
clearance [1]: 47 mL/min/kg
Vd [2]: 14 L/kg
bioavailability [3]: 81%
clearance [4]: 27 mL/min/kg
Vd [5]: 16 L/kg
bioavailability [6]: 39%
Kp at 1 h [7]: 3
Drug metabolism (Liver microsome [8]): metabolite_detected
Drug metabolism (Liver microsome [9]): metabolite_detected
SMILES: CN1Cc2cc(N3CCOCC3)ccc2[C@@H](c2ccc3sccc3c2)C1
